The test system of data set [1] is HT22 mouse hippocampal cell line. Put plainly: RSL3-induced ferroptosis model, cell viability (CCK-8).
Method: In this example, the anti-ferroptotic properties of the BB analogues described in preceding examples were evaluated by a RSL3-induced ferroptosis model. […] To evaluate the anti-ferroptosis activity of BB analogues, we developed a phenotypic screening based on RSL3-induced ferroptosis model on HT22 mouse hippocampal cell line, HMC3 microglial cell line and BV-2 murine microglial cell line which were co-treated or pre-treated with RSL3 and BB analogues for 2-24 h, and the cell viability was subsequently measured.
HMC3 cell line was maintained in Minimum Essential Medium (MEM, Gibco) supplemented with 1× non-essential amino acid (Gibco), 1 mM sodium pyruvate (Gibco), 10% fetal bovine serum (FBS) (Gibco) and 1% penicillin/streptomycin (Gibco). BV-2 cell line was maintained in Roswell Park Memorial Institute (RPMI) 1640 medium (Gibco) supplemented with 10% FBS and 1% penicillin/streptomycin, and HT22 cell line was maintained in Dulbecco's Modified Eagle's Medium (DMEM) (Gibco) supplemented with 10% FBS and 1% penicillin/streptomycin. All cells were incubated at 37° C. in a humidified atmosphere under 5% CO2.
For phenotypic screening of bilobalide (BB) analogues, 5,000 cells per well (100 uL volume) of HT22, HMC3 or BV-2 cells were placed in 96-well plate and allowed to adhere for 22 h. After which, cells were pre-treated with 200 nM (on HT22, HMC3) or 500 nM (on BV-2) of RSL3 (Bidepharm) for 2 h respectively. Medium was then replaced by 50 μM BB analogues and followed by 22 h incubation subsequently. Cell viability was measured using cell counting kit-8 (CCK-8) (MCE). For dose-response of BB analogues, RSL3, HT22 and HMC3 cells (seeded on 96-well plates at 5,000 cells per well) were treated with multiple doses of RSL3 for 2 h. […] Cell viability was measured after 22 h treatment by CCK-8. […] Cell viability was measured by CCK-8 using CLARIOstar monochromator multimode plate reader under 450 nm wavelength.
In this example, the cells were pre-treated with RSL3 (200 nM for HT22 and HMC3, 500 nM for BV-2) for two hours, followed by bilobalide analogues treatment (50 PM) for 22 hours. Cell viability was measured using cell counting kit-8 (CCK-8); n=5 technical replicates. […] Such effect was further investigated by treating the cell lines with various doses of RSL3.
A further data set concerns GPX4. Put plainly: GPX4 protein level by Western-blot. Type of data set: cell-based. To be noted: HMC3, co-treated with RSL3 1 μM and compound 10, 5, 2.5 μM, 3 h. An excerpt: As mentioned above, RSL3 treatment results in an oxidized environment in cells, which promotes the CMA to scavenge damaged proteins including GPX4 or glyceraldehyde-3-phosphate dehydrogenase (GAPDH), a well-known CMA substrate. To gain insights into the mechanism of action of bilobalide analogue XBB-037 against the RSL3-induced ferroptosis, HMC3 cells were pre-treated with RSL3, followed by treatment with or without bilobalide analogue XBB-037.
In FIN56 assay, HMC3 (300,000 cells per well on 6-well plate) was pre-treated with FIN56 (2.5, 1.25, 0.625 μM) for 2 h, followed by 8 h treatment of DMSO only (0.1%) or XBB-037 (50 μM). In RSL3 assay, HMC3 (300,000 cells per well on 6-well plate) was pre-treated with RSL3 (750, 500, 250 nM) for 2 h, followed by 4 h or 8 h treatment of DMSO only (0.1%) or XBB-037 (50 μM). […] Antibodies for GPX4 (52455, CST) was used at 1:500 dilution, β-Actin (AC026, ABclonal) was used at 1:400,000 dilution, GAPDH (AC035, ABclonal) was used at 1:3000 dilution. […] Band intensity was normalized by image lab software.
Now referring to FIGS. 7E-7F, GPX4 levels in HMC3 cells pre-treated with RSL3 are shown. Protein levels of GPX4 and […] at 0, 250, 500 or 750 nM RSL3 were measured by Western-blot. HMC3 cells were pretreated with RSL3 for 2 hours and then treated with or without 50 μM bilobalide analogue XBB-037 for 4 hours.
In addition to […], FIN56 was further used to investigate the GPX4 regulation of bilobalide analogue XBB-037. As mentioned above, FIN56 is a Class III ferroptosis inducer, which causes the depletion of cellular GPX4 levels without affecting GPX4 activity. In this experiment, HMC3 cells were pretreated with FIN56 for 2 hours and then treated with or without 50 μM XBB-037 for 8 hours. Protein levels were measured by Western-blotting using indicated antibodies. Data were plotted as mean±s.d., n=3 technical replicates. **p<0.01. Statistical analyses were performed by two-way ANOVA with multiple comparisons using Two-stage linear step-up procedure of Benjamini, Krieger and Yekutieli multiple comparisons test. […]

In another data set the test system is LC3-II/LC3-I. Particulars: HMC3, co-treated with RSL3 1 μM and compound 10, 5, 2.5 μM, 3 h.
The subject of data set [2] is HMC3 cells. Put plainly: Lipid peroxidation level by flow cytometry using C11-BODIPY. Type of data set: cell-based. The method, then:
(§1) For flow cytometry, HMC3 cells (seeded 50,000 cells per well on 24-well plate one day prior to the experiment) were pretreated with 50 nM RSL3 for 2 h. […] After which medium was replaced with BODIPY™ 581/591C11 (10 μM, Invitrogen) or CellROX™ Green (5 μM, Invitrogen) for 30 min staining. Cells were then washed 3 times with PBS and collected. Fluorescence was measured by BD FACSympgony A5.2 SORP Flow Cell Analyzer (BD Biosciences).
Disequilibrium ROS level acts as a direct initiator of lipid peroxidation, which is one of the major hallmarks of ferroptosis. In this example, HMC3 cells according to the conditions in Table 4 were subjected to measurement of lipid peroxidation level using flow cytometry and the lipid peroxidation sensor C11-BODIPY.
For flow cytometry, HMC3 cells (seeded 50,000 cells per well on 24-well plate one day prior to the experiment) were pretreated with 50 nM RSL3 for 2 h. After RSL3 treatment, medium was replaced by DMSO (0.1%) only, SXQ087-1 (10, 5 and 2.5 μM), following by 3 h treatment. After which medium was replaced with BODIPY™ 581/591C11 (10 μM, Invitrogen) for 30 min staining. Cells were then washed 3 times with PBS and collected. Fluorescence was measured by BD FACSympgony A5.2 SORP Flow Cell Analyzer (BD Biosciences).
Lipid peroxidation is one of the major hallmarks of ferroptosis. In this example, HMC3 cells according to the conditions in Table 5 were subjected to measurement of lipid peroxidation level using flow cytometry and the lipid peroxidation sensor C11-BODIPY.

The subject of data set [3] is BV-2 murine microglial cell line. Put plainly: RSL3-induced ferroptosis model, cell viability (CCK-8).
Method: In this example, the anti-ferroptotic properties of the BB analogues described in preceding examples were evaluated by a RSL3-induced ferroptosis model. […] To evaluate the anti-ferroptosis activity of BB analogues, we developed a phenotypic screening based on RSL3-induced ferroptosis model on HT22 mouse hippocampal cell line, HMC3 microglial cell line and BV-2 murine microglial cell line which were co-treated or pre-treated with RSL3 and BB analogues for 2-24 h, and the cell viability was subsequently measured. […]
For phenotypic screening of bilobalide (BB) analogues, 5,000 cells per well (100 uL volume) of HT22, HMC3 or BV-2 cells were placed in 96-well plate and allowed to adhere for 22 h. […] Cell viability was measured using cell counting kit-8 (CCK-8) (MCE). […] Cell viability was measured after 22 h treatment by CCK-8. […] Cell viability was measured by CCK-8 using CLARIOstar monochromator multimode plate reader under 450 nm wavelength.
In this example, the cells were pre-treated with RSL3 (200 nM for HT22 and HMC3, 500 nM for BV-2) for two hours, followed by bilobalide analogues treatment (50 PM) for 22 hours. Cell viability was measured using cell counting kit-8 (CCK-8); n=5 technical replicates. […]
For data set [4] the following is noted: cell free.
For data set [5], the system named is HMC3 microglial cell line. Put plainly: RSL3-induced ferroptosis model, cell viability (CCK-8). Type of data set: cell-based.
The test system of data set [6] is HMC3 cells. Put plainly: Cytotoxicity, cell viability of HMC3 cells. It is filed as cell-based. To be noted: 24 h treatment. An excerpt:
Now referring to FIG. 11A, a chart showing the cell viability (%) of HMC3 cells treated with SXQ087-1, XBB-037 or bilobalide.

Data set [7] relates to HMC3 cells. It is filed as cell-based.
The nature of data set [8]: Hydrolytic stability in buffer monitored by LC-MS/MS.
Data set [9] relates to HMC3 cells. Put plainly: Intracellular ROS level by CellROX (fluorescent imaging and flow cytometry). It is filed as cell-based. Particulars: HMC3, 50 nM RSL3 2 h, then 50 μM compound 3 h. The method, then:
as §1
For fluorescent imaging, 10,000 cells per well of HMC3 were laid on cover slip and incubated overnight. After the same compound treatment as described above in this section, cells were subsequently incubated with CellROX™ Green and Hoechst 34580 (MCE) for 30 min. After incubation, cells were washed 3 times gently with PBS. Cover slips were then attached to glass slides by Anti-Fade Fluorescence Mounting Medium (Abcam) and imaged via ECLIPSE Ti fluorescence microscope (Nikon). Fluorescent intensity was quantified using imageJ software.
To further evaluate the anti-ferroptotic properties of bilobalide analogues, we tested its effect on the total level of intracellular reactive oxygen species (ROS), we performed fluorescent staining on the HMC3 cell line using CellROX, which is a probe which can emit green fluorescence after reacting with ROS. […]
In general terms: A flow cytometer gives signals particle by particle.

Like-named read-outs stand apart in the source and are kept apart here.

Method for LC3-II/LC3-I: After incubation, cells were washed 3 times with ice-cold PBS and lysed in RIPA buffer containing 1× protease inhibitor cocktail (MCE) and nuclease (Biyotime) on ice for 30 min. All samples were centrifuged and then quantified by bicinchoninic acid (BCA) assay (Pierce). Cell lysates were diluted with Laemmli Sample Buffer (Bio-Rad) and heated at 95° C. for 5 min. Samples were separated by 12% SDS-PAGE and transferred to a polyvinylidene difluoride membrane. Membrane was incubated with 3% bovine serum albumin (BSA, Sigma-Aldrich) for 1 h, and subsequently incubated with indicated primary antibody overnight at 4° C. After incubation, membrane was washed by wash buffer (containing 20 mM Tris, 150 mM NaCl and 0.1% Tween 20), and incubated with peroxidase-conjugated secondary antibody at room temperature for 1 h. Antibodies for GPX4 (52455, Cell Signaling Technology) was used at 1:500 dilution, GAPDH (sc-32233, Santacruz) was used at 1:3000 dilution, LC3B (A19665, ABclonal) was used at 1:1000 dilution. Goat anti-rabbit IgG HRP-linked antibody (7074, CST) was used at 1:2500 dilution, goat anti-mouse IgG (H+L) secondary antibody DyLight™ 488 (35502, Invitrogen) was used at 1:5000 dilution. Blot was washed and visualized using Clarity Western ECL Substrate (Bio-Rad) with ChemiDoc MP Imaging System (Bio-Rad). Band intensity was normalized by image J software.

Regarding `CC(C)(C)[C@]1(O)C[C@@H]2OC(=O)C[C@@]23C(=O)O[C@@H]2N(CCc4ccc(O)c(O)c4)C(=O)[C@H](OC(=O)c4ccccc4)[C@]213` [SXQ087-1], the “inhibition of RSL3-induced ferroptosis (phenotypic screening, cell viability)” value (“inhibition of RSL3-induced ferroptosis” below) in [1] is on record as “effectively inhibit ferroptosis”. In addition, the “GPX4 level after RSL3” value in the data set on GPX4 is recorded as “RSL3-induced GPX4 degradation was reduced”. In the data set with LC3-II/LC3-I, the “LC3-II/LC3-I ratio after RSL3” value is given as “increasing LC3-II/LC3-I ratio was also reduced”. Also, in the data set on HMC3 cells [2], the “lipid peroxidation level (C11-BODIPY)” value was “significant down-regulation of RSL3-induced lipid peroxidation accumulation in a dose-dependent manner”. Moreover, the “inhibition of RSL3-induced ferroptosis” value in data set [3] is given as “effectively inhibit ferroptosis”. In [4], the “radical scavenging activity (relative radical level)” value is given as “significant dose-dependent radical scavenging activity”. Further, in [5], the “inhibition of RSL3-induced ferroptosis” value is recorded as “effectively inhibit ferroptosis”. Besides, the “cytotoxicity (cell viability)” value in the data set on HMC3 cells [6] is given as “no significant cytotoxicity”. Further, in the data set with HMC3 cells [7], the “protection against FIN56-induced cell death (cell viability)” value was “effectively suppressed FIN56-induced cell death”, the “protection against ML162 lethality (cell viability)” value is recorded as “alleviated the lethality of ML162”, the “protection against ML210 lethality (cell viability)” value is given as “alleviated the lethality of ML210” and the “protection against erastin-induced lethality (cell viability)” value is given as “suppressed erastin-induced lethality”.
In the case of `CC(C)(C)[C@]1(O)C[C@@H]2OC(=O)C[C@@]23C(=O)O[C@@H]2OC(=O)[C@H](O)[C@]213` [bilobalide], the “concentration remaining (hydrolytic stability)” value in [8] (buffer pH 6.8, after 20 hours) was “below 20%”; in data set [8] (buffer pH 7.4, within the first 10 hours), “below 20%”. Also, the “shift of RSL3 dose-dependent viability curve” value in [1] (HT22, multiple doses of RSL3, 50 μM compound) is recorded as “relatively marginal”; in data set [5] (HMC3, multiple doses of RSL3, 50 μM compound), “relatively marginal”. Further, the “intracellular ROS level (CellROX fluorescent staining)” value in the data set with HMC3 cells [9] is listed as “no reduction in ROS level”. Moreover, in the data set with HMC3 cells [2] (HMC3, 50 nM RSL3 2 h, then 50, 25 and 12.5 μM compound 3 h), the “lipid peroxidation level (C11-BODIPY)” value is given as “no significant alteration”. Moreover, in the data set on HMC3 cells [6], the “cytotoxicity (cell viability)” value is reported as “no significant cytotoxicity”.
